± gives the expanded uncertainty stated by the source.
Assay: xn = mol fraction of the nth substance listed
Settings: 101 kPa, Liquid, Vibrating tube method

## C[P+](c1ccccc1)(c1ccccc1)c1ccccc1.[Br-] [methyltriphenylphosphonium bromide] + OCC(O)CO
298.15 K, x1 = 0.25
  mass density: 1295.8 ± 1.1 kg/m3
303.15 K, x1 = 0.25
  mass density: 1292.4 ± 1.1 kg/m3
308.15 K, x1 = 0.25
  mass density: 1288.9 ± 1.1 kg/m3
313.15 K, x1 = 0.25
  mass density: 1285.3 ± 1.1 kg/m3
318.15 K, x1 = 0.25
  mass density: 1281.7 ± 1.1 kg/m3
323.15 K, x1 = 0.25
  mass density: 1278.1 ± 1.1 kg/m3

## C[P+](c1ccccc1)(c1ccccc1)c1ccccc1.[Br-] [methyltriphenylphosphonium bromide] + OCCO
298.15 K, x1 = 0.25
  mass density: 1249.1 ± 1.1 kg/m3
303.15 K, x1 = 0.25
  mass density: 1245.7 ± 1.1 kg/m3
308.15 K, x1 = 0.25
  mass density: 1242.2 ± 1.1 kg/m3
313.15 K, x1 = 0.25
  mass density: 1238.8 ± 1.1 kg/m3
318.15 K, x1 = 0.25
  mass density: 1235.4 ± 1.1 kg/m3
323.15 K, x1 = 0.25
  mass density: 1231.9 ± 1.1 kg/m3

## CC[N+](CC)(CC)CC.[Cl-] [tetraethylammonium chloride] + OCC(O)CO
293.15 K, x1 = 0.3333
  mass density: 1124 ± 1 kg/m3
298.15 K, x1 = 0.3333
  mass density: 1121 ± 1 kg/m3
303.15 K, x1 = 0.3333
  mass density: 1118.1 ± 1 kg/m3
308.15 K, x1 = 0.3333
  mass density: 1115.1 ± 1 kg/m3
313.15 K, x1 = 0.3333
  mass density: 1112.3 ± 1 kg/m3
318.15 K, x1 = 0.3333
  mass density: 1109.4 ± 1 kg/m3
323.15 K, x1 = 0.3333
  mass density: 1106.6 ± 1 kg/m3
328.15 K, x1 = 0.3333
  mass density: 1103.8 ± 1 kg/m3
333.15 K, x1 = 0.3333
  mass density: 1101 ± 1 kg/m3
338.15 K, x1 = 0.3333
  mass density: 1098.2 ± 1 kg/m3
343.15 K, x1 = 0.3333
  mass density: 1095.4 ± 1 kg/m3

## CC[N+](CC)(CC)CC.[Cl-] [tetraethylammonium chloride] + OCCO
293.15 K, x1 = 0.3333
  mass density: 1052.3 ± 1 kg/m3
298.15 K, x1 = 0.3333
  mass density: 1049.4 ± 1 kg/m3
303.15 K, x1 = 0.3333
  mass density: 1046.6 ± 1 kg/m3
308.15 K, x1 = 0.3333
  mass density: 1043.7 ± 1 kg/m3
313.15 K, x1 = 0.3333
  mass density: 1040.9 ± 1 kg/m3
318.15 K, x1 = 0.3333
  mass density: 1038.1 ± 1 kg/m3
323.15 K, x1 = 0.3333
  mass density: 1035.3 ± 1 kg/m3
328.15 K, x1 = 0.3333
  mass density: 1032.5 ± 1 kg/m3
333.15 K, x1 = 0.3333
  mass density: 1029.7 ± 1 kg/m3
338.15 K, x1 = 0.3333
  mass density: 1026.9 ± 1 kg/m3
343.15 K, x1 = 0.3333
  mass density: 1024.1 ± 1 kg/m3

Reference: the NIST ThermoML archive (doi:10.1016/j.fluid.2018.03.018)
